Measurements: US20240287477A1, “CATALASE MIMETIC PEPTIDES” (Northwestern University, priority 2023, published 2024)
Square brackets hold non-standard residues; d marks the D form. Ends that are not written are not given here.

What was measured:
Type in all cases: cell-based
MCF-10AER/cSrc = assay: Transformation (spiked shape) of cells after 4-hydroxy-tamoxifen, phase contrast imaging; conditions: after 4-OHT (1 μM); either in single dose or every day
Procedure: (§1) FIG. 1A. REDOX effects promoted by peptidyl di-copper complex. (A) Oxidized (λex=[…]) and reduced (λex=[…]) roGFP2 signals 30 minutes after exposure to the metallocomplex (Day 1) and at the final of the experiment (Day 5) were measured and the oxidized/reduced ratio was obtained using ImageJ (shown as histogram). FIG. 1B. Representative images of MCF-10AER/cSrc transformation after treatment with 4-hydroxy-tamoxifen (1 μM) registered by Lionheart (phase contrast). FIG. 1C. Western blot analysis of E-Cadherin (E-Cad), Fibronectin (FN1), and Vimentin (Vim) in MCF-10AER/cSrc transformed cells (5 days after 4-OHT treatment). CATm1-peptidyl di-copper complex, as previously reported, DNK01-peptidyl di-copper complex with D-amino acids, sd-single dose, cd-daily doses.
Another important observation was the delayed transformation of the cells in the system. After exposure to 4-OHT, cells acquired a spiked shape as soon as day 1 to day 2 (FIG. 1B). This process was delayed for two days when the cells were exposed to Cu^2+-CATm1 or Cu^2+-DNK01 either in single dose or every day.

Fibronectin (FN1) = assay: Western blot of mesenchymal marker Fibronectin in transformed cells, day 5; conditions: 4-OHT treated only
Procedure: as §1
(§2) Experiments were conducted during development of embodiments herein to measure the expression of EMT markers in this system at the end of the experiment (day 5). […] But in cells exposed only to 4-OHT, the levels dropped to almost 50% in comparison to the control cells. In the same FIGURE, the mesenchymal markers Vimentin and Fibronectin were also probed by western blot. […] Transformed cells, 4-OHT treated, expressed 3 times compared to control, and cells also treated with peptides in single doses.

E-Cadherin (E-Cad) = assay: Western blot of epithelial marker E-cadherin in transformed cells, day 5; conditions: cells exposed only to 4-OHT
Procedure: as §1, §2

[1] = tested on: MCF-10A ER/cSrc/NLS-Orp1-roGFP2 cells; assay: Nuclear ROS by NLS-roGFP2-Orp1 oxidized/reduced ratio after 4-OHT exposure; conditions: peptide 250 μM, CuSO4 500 μM; for ROS levels: day 5
Procedure: as §1
Lyophilized peptides were resuspended in MOPS buffer (30 mM, pH 7.5) to a concentration of 5 mM; a 50 mM copper solution was prepared in the same buffer. Both solutions were mixed in a 1:2 (peptide:copper) concentration 30 minutes before applying them to the cell culture. The final concentration of the complex in the cell culture was peptide at 250 μM and CuSO4 at 500 μM. The culture was monitored by measuring the ratio I(405/525)/I(488/525) given by the NLS-roGFP2-Orp1.
Exposure to 4-hydroxytamoxifen (4-OHT) transforms MCF-10A ER/cSrc/NLS-Orp1-roGFP2 cells into a tumorous cell line due to the oxidation of the nuclear compartment. Experiments were conducted by measuring the nuclear ROS in these cells. Probe oxidation status was monitored for 5 days after exposure to 4-OHT (FIG. 1A). […] It was not sufficient to keep the ROS levels as low as on day 1. This was due to a disruption of the complex and accumulation of free copper in the media.

Substance | delay of transformation of the cells (spiked shape) (MCF-10AER/cSrc) | Fibronectin expression compared to control (Fibronectin (FN1)) [times] | E-cadherin levels in comparison to the control cells (E-Cadherin (E-Cad)) [%] | levels of nuclear oxidants ([1]; day 1, right after exposure (30 minutes), 4-OHT treated cells) | ROS levels ([1]; presented everyday with fresh media) | ROS levels ([1]; single dose in day 1)
dPdHdYdKdHdRdLdH ([dP][dH][dY][dK][dH][dR][dL][dH]; also: di-copper complex) [DNK01, peptidyl di-copper complex with D-amino acids] | two | – | – | – | – | –
4-hydroxytamoxifen [4-OHT] | – | 3 | ~50 | – | – | –
PHYKHRLH (also: di-copper complex) [CATm1, short peptidyl di-copper complex developed to mimic catalase, as previously reported] | two | – | – | lower levels of nuclear oxidants | keep the ROS in lower levels | ROS levels increase
